Measurements as given in ChEMBL document CHEMBL1811840, “p-hydroxyacetophenone amides from Cystobacter ferrugineus, strain Cb G35” (J Nat Prod, 2011).
Activity calls are given as the source filed them. The calls are words filed in the database; no cut-off is given here.

Tests used:
Chlamydomonas = test: Antimicrobial activity against Chlamydomonas sp. at 0.8 to 100 ug/mL by serial dilution method; format: functional
Bracteacoccus = test: Antimicrobial activity against Bracteacoccus sp. at 0.8 to 100 ug/mL by serial dilution method; format: functional
[1] = system: Scenedesmus bajacalifornicus; test: Antimicrobial activity against Scenedesmus bajacalifornicus at 0.8 to 100 ug/mL by serial dilution method; format: functional; conditions: Tetradesmus bajacalifornicus
Botryococcus braunii = test: Antimicrobial activity against Botryococcus braunii at 0.8 to 100 ug/mL by serial dilution method; format: functional
Pseudococcomyxa simplex [2] = test: Antimicrobial activity against Pseudococcomyxa simplex at 100 ug/mL by serial dilution method; format: functional
Mucor hiemalis = test: Antimicrobial activity against Mucor hiemalis at 100 ug/mL by serial dilution method; format: functional, organism-based
Staphylococcus aureus = test: Antimicrobial activity against Staphylococcus aureus at 100 ug/mL after 24 hrs by serial dilution method; format: functional, organism-based
Nocardia = test: Antimicrobial activity against Nocardia flava at 100 ug/mL after 24 hrs by serial dilution method; format: functional
Micrococcus luteus = test: Antimicrobial activity against Micrococcus luteus at 100 ug/mL after 24 hrs by serial dilution method; format: functional, organism-based
Escherichia coli = test: Antimicrobial activity against Escherichia coli at 100 ug/mL after 24 hrs by serial dilution method; format: functional, organism-based
[3] = system: Chromobacterium violaceum; test: Antimicrobial activity against Chromobacterium violaceum at 100 ug/mL after 24 hrs by serial dilution method; format: functional, organism-based
Candida albicans = test: Antimicrobial activity against Candida albicans at 100 ug/mL after 24 hrs by serial dilution method; format: functional, organism-based
Rhodotorula glutinis = test: Antimicrobial activity against Rhodotorula glutinis at 100 ug/mL after 24 hrs by serial dilution method; format: functional, organism-based
Wickerhamomyces anomalus = test: Antimicrobial activity against Pichia anomala at 100 ug/mL after 24 hrs by serial dilution method; format: functional, organism-based
[4] = system: Schizosaccharomyces pombe; test: Antimicrobial activity against Schizosaccharomyces pombe at 100 ug/mL after 24 hrs by serial dilution method; format: functional, organism-based
U-937 = test: Cytotoxicity against human U937 cells up to 100 ug/mL by WST-1 assay; format: functional, cell-based
Pseudococcomyxa simplex [5] = test: Antimicrobial activity against Pseudococcomyxa simplex at 0.8 to 100 ug/mL by serial dilution method; format: functional

Structure (SMILES)	growth inhibition (GI) (Chlamydomonas)	growth inhibition (GI) (Bracteacoccus)	growth inhibition (GI) [1]	growth inhibition (GI) (Botryococcus braunii)	growth inhibition (GI) (Pseudococcomyxa simplex [2])	growth inhibition (GI) (Mucor hiemalis)	growth inhibition (GI) (Staphylococcus aureus)	growth inhibition (GI) (Nocardia)	growth inhibition (GI) (Micrococcus luteus)	growth inhibition (GI) (Escherichia coli)	growth inhibition (GI) [3]	growth inhibition (GI) (Candida albicans)	growth inhibition (GI) (Rhodotorula glutinis)	growth inhibition (GI) (Wickerhamomyces anomalus)	growth inhibition (GI) [4]	Activity (U-937)	growth inhibition (GI) (Pseudococcomyxa simplex [5])
CC(C)CC(=O)N/C=C/c1ccc(O)cc1	inactive	inactive	inactive	inactive	Active	inactive	inactive	inactive	inactive	inactive	inactive	inactive	inactive	inactive	inactive	inactive	–
CCCCCC(=O)NCC(=O)c1ccc(O)cc1	inactive	inactive	inactive	inactive	–	inactive	inactive	inactive	inactive	inactive	inactive	inactive	inactive	inactive	inactive	inactive	inactive
CC(C)CC(=O)NCC(=O)c1ccc(O)cc1	inactive	inactive	inactive	inactive	–	inactive	inactive	inactive	inactive	inactive	inactive	inactive	inactive	inactive	inactive	inactive	inactive
CC(C)CCC(=O)NCC(=O)c1ccc(O)cc1	inactive	inactive	inactive	inactive	–	inactive	inactive	inactive	inactive	inactive	inactive	inactive	inactive	inactive	inactive	inactive	inactive
CC(=O)NCC(=O)c1ccc(O)cc1	inactive	inactive	inactive	inactive	–	inactive	inactive	inactive	inactive	inactive	inactive	inactive	inactive	inactive	inactive	inactive	inactive
CCCC(=O)NCC(=O)c1ccc(O)cc1	inactive	inactive	inactive	inactive	–	inactive	inactive	inactive	inactive	inactive	inactive	inactive	inactive	inactive	inactive	inactive	inactive
